In paper PMC7193532 (Acta Crystallographica. Section D, Structural Biology, 2020):
Converted amounts (≈) assume the structure as drawn. *1 amine or outer side, *2 acyl side, *3 side chain or, on linkers, in order; H or OH if unused. Where a SMILES comes first, the peptide text is derived from it. Bridges are numbered along the chain shown (N, C = ends). [ ]: non-standard residue; d: D form. The star is where a group is joined. ξ: configuration not given here. Phe(3R-OH) = O=C([C@@H](N[*:1])[C@H](O[*:3])c1ccccc1)[*:2]; NMeTrp(4-OMe) = CN[CH](Cc1c[nH]c2cccc(OC)c12)C(=O)O; X1 = O=C(C(N[*:1])C(O)c1ccccc1)[*:2]; NMeT = CN[CH](C(=O)O)[CH](C)O; NMeI = CC[CH](C)[CH](NC)C(=O)O; ξNMe2Val = CC(C)C(C(=O)*)N(C)C; NMeL = CN[CH](CC(C)C)C(=O)O; NMeV = CN[CH](C(=O)O)C(C)C

How the values were obtained:
ClpC1-FL = ClpC1-FL (Mycobacterium tuberculosis, UniProt P9WPC9); assay type: binding; conditions: for Stoichiometry (Sm): calculated from SPR responses, compound molecules per ClpC1; for improvement of χ^2, multi-site versus one-site fit: multi-site fit better; for difference between Kd1 and Kd2: multi-site model
[1] = co-crystallization attempts
[2] = system: ClpC1–ClpP1–ClpP2 complex; conditions: 2019, cited from earlier work; for effect on proteolytic activity: ECU, lassomycin: ref Choules et al., Gavrish et al., 2014; for effect on proteolysis: CYMA, RUF-I: ref Schmitt et al., 2011, Choules et al.
ClpC1 [3] = conditions: cited from earlier work
ClpC1 [4] = conditions: cited from earlier work; remark: listed apart in the source
[5] = molecular target: full-length ClpC1 (ClpC1-FL) (Mycobacterium tuberculosis) (UniProt P9WPC9); test: SPR
[6] = molecular target: N-terminal domain of ClpC1 (ClpC1-NTD), residues 1-145 plus a C-terminal His tag (Mycobacterium tuberculosis) (UniProt P9WPC9); test: crystal structure

Compound: CCC(C)C(C(=O)NC1C(=O)N(C)C(C(C)O)C(=O)NC(C(C)C)C(=O)N(C)C(CC(C)C)C(=O)NC(C(C)C)C(=O)N(C)C(C(C)C)C(=O)N(C)C(Cc2c[nH]c3cccc(OC)c23)C(=O)NC(C(C)C)C(=O)NC(C(O)c2ccccc2)C(=O)NC(C(C)C)C(=O)OC1C)N(C)C(=O)C(NC(=O)C(C(C)C)N(C)C)C(C)C (stereo not drawn) [ECU, ecumicin] (ξNMe2Val-V[NMeI]T[NMeT]V[NMeL]V[NMeV][NMeTrp(4-OMe)]V[X1]V; ester 3-C; configuration not given here)
- χ^2 of one-site fit (ClpC1-FL; 1:1 Langmuir model, smaller = better fit): 16.1
- Stoichiometry (Sm) (ClpC1-FL): 2.2
- χ^2 of multi-site fit (ClpC1-FL; heterogeneous ligand model, smaller = better fit): 3.2
- improvement of χ^2, multi-site versus one-site fit (ClpC1-FL): fivefold
- difference between Kd1 and Kd2 (ClpC1-FL): about 18 fold
- MIC90 (Mtb): 0.11 ± 0.013 µM (≈ 0.176 µg/mL)
- solubility (in words) [1]: poor solubility
- effect on proteolytic activity [2]: decrease the proteolytic activity
- effect on ATPase activity (ClpC1 [3]): activate the ATPase activity
- enhancement of ATPase activity of ClpC1 (ClpC1 [3]): at least twofold

Compound: CN[C@H](C(=O)N[C@H](C(=O)N[C@@H]1C(=O)N(C)[C@@H]([C@@H](C)O)C(=O)N[C@@H](C(C)C)C(=O)N(C)[C@@H](CC(C)C)C(=O)N[C@@H](C(C)C)C(=O)N(C)[C@@H](C(C)C)C(=O)N(C)[C@@H](Cc2c[nH]c3cccc(OC)c23)C(=O)N[C@@H](C(C)C)C(=O)N[C@@H]([C@H](O)c2ccccc2)C(=O)N[C@@H](C(C)C)C(=O)O[C@@H]1C)C(C)C)C(C)C [OMS-A, ohmyungsamycin A] (H-[NMeV]VT[NMeT]V[NMeL]V[NMeV][NMeTrp(4-OMe)]V[Phe(3R-OH)]V; ester 3-C)
- Stoichiometry (Sm) (ClpC1-FL): 2.2
- improvement of χ^2, multi-site versus one-site fit (ClpC1-FL): threefold
- difference between Kd1 and Kd2 (ClpC1-FL): fivefold

Compound: C/C=C/C[C@@H]1NC(=O)[C@H](CC(C)C)N(C)C(=O)[C@H](CC(C)C)NC(=O)[C@H](Cc2ccc(O)c([N+](=O)[O-])c2)NC(=O)[C@H](C)N2C(=O)[C@H](CC(C)C2O)N(C)C(=O)[C@H](Cc2cn(C(C)(C)C3CO3)c3ccccc23)NC1=O (stereo partly drawn) [RUF-I, rufomycin I]
- effect on proteolysis [2]: inhibition
- effect on ATPase activity (ClpC1 [3]): no significant effect
- enhancement of ATPase activity of ClpC1 (ClpC1 [3]): no significant effect
- binding in the presence of ECU (ClpC1 [4]): cannot bind in the presence of ECU

Compound: cyclomarin A [CYMA, reference compound]
- effect on proteolysis [2]: activation
- effect on ATPase activity (ClpC1 [3]): no effect on the ATPase activity

Compound: ecumicin (ECU) (peptide)
- stoichiometry N [5]: 2.2
- stoichiometry N (ECU per ClpC1-NTD) [6]: 2

Compound: lassomycin [reference compound]
- effect on proteolytic activity [2]: decrease the proteolytic activity
- effect on ATPase activity (ClpC1 [3]): activate the ATPase activity

Compound: ohmyungsamycin A (OMS-A) (peptide)
- stoichiometry N [5]: 2.2

Compound: ohmyungsamycin B (OMS-B) (peptide)
- Kd1 (site 1, multi-site fit) [5]: 962 nM
- Kd2 (site 2, multi-site fit) [5]: 1740 nM

Compound: ohmyungsamycin B [OMS-B]
- reduction in binding relative to ECU (ClpC1-FL; structural analogs of ECU): tenfold
